Like-named read-outs stand apart in the source and are kept apart here.
How the values were obtained:
clinical = type: in vivo, human
Protocol: The highest doses tested in healthy subjects were for a 30-mg single dose and a 10-mg multiple dose (once daily nighttime dose for 14 days). The highest dose tested in subjects with insomnia was 10 mg.

[1] = tested on: subjects suffering from the Insomnia Disorder adult insomnia; type: in vivo, human
Protocol: Following the evening-time dosing with study drug, subjects underwent eight hours of continuous PSG recording. Next-day residual effects were assessed by the DSST and the KSS evaluation, collected in that order, starting at approximately 30 minutes after “lights-on.” All tests were administered in the clinical unit, beginning 30 minutes after lights-on and periodically thereafter for approximately 16 hours post-lights-off, following completion of PSG recording. Each subject also completed a post-sleep questionnaire once after lights-on so that subjective impressions could be assessed about the “quality” and “quantity” of their sleep. Before the second night dosing in each dosing period, subjects were evaluated for any residual sleepiness. […] Subjects remained in the clinic until residual symptoms were minimized.
The well-known KSS measures, subjectively, the level of a subject's sleepiness at a specific time of the day and was therefore useful as another indication of next day residual effects, if any. The KSS comprised a 9-step scale (ranging from, e.g., “extremely alert” (assigned 1 point) to alert (assigned 3 points) to “neither sleepy nor alert” (assigned 5 points) to “sleepy” (assigned 7 points) to “extremely sleepy” (assigned 9 points)) that characterized sleepiness at a particular time during the day (within 5 minutes of the assessment).
In a paper-and-pencil evaluation, each subject checked a box corresponding to the point of the scale that best characterized their state of drowsiness experienced during the preceding 5 minutes. The KSS evaluation followed the DSST after each night of the baseline visit (Visit 2) and after each night of Dosing Periods 1-5 according to the schedule set out in the previous example.
The KSS evaluation results shown, other than for the baseline, are the mean results obtained from the KSS evaluation scores following all nights of Dosing Periods 1-5 for the indicated dose. The KSS evaluation results for the baseline are the mean results obtained following the first and second nights of the baseline visit. Note that for clarity of display purposes, in FIG. 7 many of the test results at each time period, e.g., at approximately ½ hour after lights-on/9 hours post-dosing, were staggered arbitrarily away from the actual time when the test was conducted.

O=C(O)c1nc2ccccc2n([C@H]2C[C@H]3CCC[C@@H](C2)N3C2CC3CCCC(C3)C2)c1=O (stereo partly drawn) [Compound (1C)]
major elimination pathway (clinical; human): Renal elimination
major metabolite in human plasma (clinical; human plasma): No major metabolite has been identified
renal clearance (adjusted by plasma protein binding) compared with glomerular filtration rate (clinical; human, in vivo): higher than the human glomerular filtration rate
Tmax (clinical; human, in vivo, po): ~1.5 h
half-life (clinical; human, in vivo, po): 2 to 3 h
dose proportionality of exposure (clinical; once a day dosing for 2 weeks): approximately dose-proportional exposure up to 10 mg
dose proportionality of exposure (clinical; single oral administration): approximately dose-proportional exposure up to 10 mg
unchanged drug recovered in urine (clinical; within 48 hours): 80-100%
next day residual effects by mean KSS evaluation results vs placebo ([1]; 0.5 mg, about 9 to about 16 hours post-dosing): no next day residual effects
next day residual effects by mean KSS evaluation results vs placebo ([1]; 1.0 mg, about 9 to about 16 hours post-dosing): no next day residual effects
next day residual effects by mean KSS evaluation results vs placebo ([1]; 3.0 mg, each of the testing times): some next day residual effects
next day residual effects by mean KSS evaluation results vs placebo ([1]; 6.0 mg, each of the testing times): some next day residual effects
